The subject of assay [1] is APAE001 (ATCC27853). As to the kind of experiment: MIC broth microdilution, APAE001. The class given is cell-based, P. aeruginosa. To be noted: Pseudomonas aeruginosa, ATCC27853, read-out: MIC APAE001, APAE001 is ATCC27853. A digest of the protocol: (§1)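 Inocula prepared from 0.5 McFarland suspensions (final 3×10^5–7×10^5 CFU/mL) were added to 2-fold drug dilution series in cation-adjusted Mueller-Hinton broth. Plates stood 18-24 hours at 35° C. under ambient air.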
A general note: Broth dilution looks for growth in wells or tubes with falling amounts of substance.

The subject of assay [2] is APAE006 (strain of P. aeruginosa in which all efflux pumps are inactivated). The experiment in a line: microbe, parasite or virus in culture. As to conditions: Pseudomonas aeruginosa, read-out: MIC APAE006, P. aeruginosa, all efflux pumps inactivated. The class given is cell-based. In outline: (§2)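 CLSI broth microdilution in cation-adjusted Mueller-Hinton broth, final inoculum 3×10^5–7×10^5 CFU/mL, 2-fold drug dilutions, 18-24 hours at 35° C. in ambient air. APAE006 is an efflux-pump-inactivated P. aeruginosa strain. Assay performance monitored with QC strains and levofloxacin.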

In assay [3] the test system is ASAU001 (laboratory strain of S. aureus, ATCC29213). As to the kind of experiment: MIC broth microdilution, ASAU001. In kind it is cell-based. As to conditions: Staphylococcus aureus, ATCC29213, read-out: MIC ASAU001. In outline: as §1
For assay [4], the system named is AECO001 HSA AGP. As to the kind of experiment: MIC broth microdilution, AECO001 HSA AGP. As to conditions: Escherichia coli. In kind it is cell-based, E. coli. A digest of the protocol: as §1
The subject of assay [5] is APAE006 in the presence of 8 micrograms per milliliter of polymyxin B nonapeptide. In kind it is cell-based, P. aeruginosa. As to conditions: in the presence of 8 micrograms per milliliter of polymyxin B nonapeptide. In outline:
as §2

Assay [6] deals with AABA1060 (clinical isolate of Acinetobacter baumannii). As to the kind of experiment: MIC broth microdilution, AABA1060. The class given is cell-based. As to conditions: Acinetobacter baumannii, read-out: MIC AABA1060. A digest of the protocol: as §1
For assay [7], the system named is AECO001 (ATCC25922). As to the kind of experiment: MIC broth microdilution, AECO001. In kind it is cell-based, E. coli. To be noted: Escherichia coli, ATCC25922, read-out: MIC AECO001. A digest of the protocol: as §1
In assay [8] the test system is AECO063 (ATCC25922 bearing an acrAB mutation). As to the kind of experiment: microbe, parasite or virus in culture. The class given is cell-based, E. coli. As to conditions: Escherichia coli, ATCC25922, read-out: MIC AECO063. A digest of the protocol:
as §1

The source of these data is US9617256B2 (priority 2007, dated 2017).

Converted amounts (≈) assume the structure as drawn. Where only a bound is given, the exact number is not on record here.

Take `CN(C)CC(=O)NC[C@H](NC(=O)c1ccc(C#C/C=C/c2ccc(CN3CCOCC3)cc2)cc1)C(=O)NO` [Example 98-2, N—[(S)-2-(2-dimethylamino-acetylamino)-1-hydroxycarbamoyl-ethyl]-4-[(E)-4-(4-morpholin-4-ylmethyl-phenyl)-but-3-en-1-ynyl]-benzamide]: the MIC in assay [1] is 2 to 16 µg/mL (≈ 3.75 to 30 µM); in assay [2] it was under 2 µg/mL; in assay [3] it was 16 to 64 µg/mL (≈ 30 to 120 µM); in assay [4], 2 to 16 µg/mL (≈ 3.75 to 30 µM); in assay [6], 16 to 64 µg/mL (≈ 30 to 120 µM); in assay [7], under 2 µg/mL. In assay [8], the MIC is under 2 µg/mL. Also, the “MIC APAE006 + PMBN” value in assay [5] is reported as “A (MIC's of 2.0 μg/mL or less = A)”.
Regarding `CC(=O)NC[C@H](NC(=O)c1ccc(C#C/C=C/c2ccc(CN3CCOCC3)cc2)cc1)C(=O)NO` [Example 98-3, N—((S)-2-acetylamino-1-hydroxycarbamoyl-ethyl)-4-[(E)-4-(4-morpholin-4-ylmethyl-phenyl)-but-3-en-1-ynyl]-benzamide], the MIC in assay [1] was 2 to 16 µg/mL (≈ 4.08 to 32.6 µM); in assay [2], under 2 µg/mL; in assay [3] it was over 64 µg/mL; in assay [4], under 2 µg/mL; in assay [6], 16 to 64 µg/mL (≈ 32.6 to 130 µM); in assay [7], under 2 µg/mL. The MIC in assay [8] is under 2 µg/mL. Moreover, in assay [5], the “MIC APAE006 + PMBN” value is listed as “A (MIC's of 2.0 μg/mL or less = A)”.
`CNC[C@H](NC(=O)c1ccc(C#C/C=C/c2ccc(CN3CCOCC3)cc2)cc1)C(=O)NO` [Example 99-1]: the MIC is 2 to 16 µg/mL (≈ 4.32 to 34.6 µM) in assay [1]; under 2 µg/mL in assay [2]; 16 to 64 µg/mL (≈ 34.6 to 138 µM) in assay [3]; 2 to 16 µg/mL (≈ 4.32 to 34.6 µM) in assay [4]; 16 to 64 µg/mL (≈ 34.6 to 138 µM) in assay [6]; under 2 µg/mL in assay [7]. In addition, the MIC in assay [8] was under 2 µg/mL. The “MIC APAE006 + PMBN” value in assay [5] is “A (MIC's of 2.0 μg/mL or less = A)”.
For `O=C(CNC1CC1)NC[C@H](NC(=O)c1ccc(C#C/C=C/c2ccc(CN3CCOCC3)cc2)cc1)C(=O)NO` [Example 100-1, N—[(S)-2-(2-Cyclopropylamino-acetylamino)-1-hydroxycarbamoyl-ethyl]-4-[(E)-4-(4-morpholin-4-ylmethyl-phenyl)-but-3-en-1-ynyl]-benzamide], the MIC was 2 to 16 µg/mL (≈ 3.67 to 29.3 µM) in assay [1]; under 2 µg/mL in assay [2]; 16 to 64 µg/mL (≈ 29.3 to 117 µM) in assay [3]; 2 to 16 µg/mL (≈ 3.67 to 29.3 µM) in assay [4]; 16 to 64 µg/mL (≈ 29.3 to 117 µM) in assay [6]; under 2 µg/mL in assay [7]. Moreover, the MIC in assay [8] is under 2 µg/mL. The “MIC APAE006 + PMBN” value in assay [5] is reported as “A (MIC's of 2.0 μg/mL or less = A)”.
For `C[C@@H](O)[C@H](NC(=O)c1ccc(C#C/C=C/c2ccc(CO)cc2)cc1)C(=O)NO` [Example 101-1, N-((1S,2R)-2-Hydroxy-1-hydroxycarbamoyl-propyl)-4-[(E)-4-(4-hydroxymethyl-phenyl)-but-3-en-1-ynyl]-benzamide], the MIC in assay [1] is 2 to 16 µg/mL (≈ 5.07 to 40.6 µM); in assay [2] it was under 2 µg/mL; in assay [3], 16 to 64 µg/mL (≈ 40.6 to 162 µM); in assay [4] it was 2 to 16 µg/mL (≈ 5.07 to 40.6 µM); in assay [6], 16 to 64 µg/mL (≈ 40.6 to 162 µM); in assay [7] it was under 2 µg/mL. For the same molecule, the MIC in assay [8] was under 2 µg/mL. Besides, the “MIC APAE006 + PMBN” value in assay [5] was “A (MIC's of 2.0 μg/mL or less = A)”.
For the molecule `NC[C@H](NC(=O)c1ccc(C#C/C=C/c2ccc(CO)cc2)cc1)C(=O)NO` [Example 101-2], the MIC is 2 to 16 µg/mL (≈ 5.27 to 42.2 µM) in assay [1]; under 2 µg/mL in assay [2]; 16 to 64 µg/mL (≈ 42.2 to 169 µM) in assay [3]; 16 to 64 µg/mL (≈ 42.2 to 169 µM) in assay [4]; 16 to 64 µg/mL (≈ 42.2 to 169 µM) in assay [6]; under 2 µg/mL in assay [7]. Also, the MIC in assay [8] was under 2 µg/mL. Moreover, the “MIC APAE006 + PMBN” value in assay [5] was “A (MIC's of 2.0 μg/mL or less = A)”.
On to `C[C@@H](N)[C@H](NC(=O)c1ccc(C#C/C=C/c2ccc(CO)cc2)cc1)C(=O)NO` [Example 101-3], for which the MIC in assay [1] is under 2 µg/mL; in assay [2], under 2 µg/mL; in assay [3], 16 to 64 µg/mL (≈ 40.7 to 163 µM); in assay [4] it was 2 to 16 µg/mL (≈ 5.08 to 40.7 µM); in assay [6] it was 2 to 16 µg/mL (≈ 5.08 to 40.7 µM); in assay [7], under 2 µg/mL. Also, in assay [8], the MIC is under 2 µg/mL. The “MIC APAE006 + PMBN” value in assay [5] is on record as “A (MIC's of 2.0 μg/mL or less = A)”.
With `C[C@H](O)[C@H](NC(=O)c1ccc(C#C/C=C/c2ccc(CO)cc2)cc1)C(=O)NO` [Example 101-4], the MIC in assay [1] was 2 to 16 µg/mL (≈ 5.07 to 40.6 µM); in assay [2], under 2 µg/mL; in assay [3], 16 to 64 µg/mL (≈ 40.6 to 162 µM); in assay [4], 2 to 16 µg/mL (≈ 5.07 to 40.6 µM); in assay [6], 16 to 64 µg/mL (≈ 40.6 to 162 µM); in assay [7], under 2 µg/mL. Besides, the MIC in assay [8] is under 2 µg/mL. In assay [5], the “MIC APAE006 + PMBN” value is “A (MIC's of 2.0 μg/mL or less = A)”.
As for `CC(C)(O)[C@H](NC(=O)c1ccc(C#C/C=C/c2ccc(CO)cc2)cc1)C(=O)NO` [Example 101-5], the MIC in assay [1] was under 2 µg/mL; in assay [2], under 2 µg/mL; in assay [3] it was 16 to 64 µg/mL (≈ 39.2 to 157 µM); in assay [4], 2 to 16 µg/mL (≈ 4.9 to 39.2 µM); in assay [6], under 2 µg/mL; in assay [7], under 2 µg/mL. For the same molecule, the MIC in assay [8] was under 2 µg/mL. The “MIC APAE006 + PMBN” value in assay [5] is on record as “A (MIC's of 2.0 μg/mL or less = A)”.
For `C[C@@H](O)[C@H](NC(=O)c1ccc(C#C/C=C/c2ccc(CNC3CC3)cc2)cc1)C(=O)NO` [Example 102-1, 4-[(E)-4-(4-Cyclopropylaminomethyl-phenyl)-but-3-en-1-ynyl]-N-((1S,2R)-2-hydroxy-1-hydroxycarbamoyl-propyl)-benzamide], the MIC was 2 to 16 µg/mL (≈ 4.61 to 36.9 µM) in assay [1]; under 2 µg/mL in assay [2]; 16 to 64 µg/mL (≈ 36.9 to 148 µM) in assay [3]; 2 to 16 µg/mL (≈ 4.61 to 36.9 µM) in assay [4]; 16 to 64 µg/mL (≈ 36.9 to 148 µM) in assay [6]; under 2 µg/mL in assay [7]. The MIC in assay [8] was under 2 µg/mL. Further, the “MIC APAE006 + PMBN” value in assay [5] is reported as “A (MIC's of 2.0 μg/mL or less = A)”.
Turning to `C[C@@H](N)[C@H](NC(=O)c1ccc(C#C/C=C/c2ccc(CNC3CC3)cc2)cc1)C(=O)NO` [Example 102-2], the MIC is 2 to 16 µg/mL (≈ 4.62 to 37 µM) in assay [1]; under 2 µg/mL in assay [2]; 16 to 64 µg/mL (≈ 37 to 148 µM) in assay [3]; 2 to 16 µg/mL (≈ 4.62 to 37 µM) in assay [4]; 2 to 16 µg/mL (≈ 4.62 to 37 µM) in assay [6]; under 2 µg/mL in assay [7]. Moreover, the MIC in assay [8] is under 2 µg/mL. For the same molecule, in assay [5], the “MIC APAE006 + PMBN” value is recorded as “A (MIC's of 2.0 μg/mL or less = A)”.
For `NC[C@H](NC(=O)c1ccc(C#C/C=C/c2ccc(CNC3CC3)cc2)cc1)C(=O)NO` [Example 102-3], the MIC in assay [1] was under 2 µg/mL; in assay [2], under 2 µg/mL; in assay [3], 16 to 64 µg/mL (≈ 38.2 to 153 µM); in assay [4], 2 to 16 µg/mL (≈ 4.78 to 38.2 µM); in assay [6], 16 to 64 µg/mL (≈ 38.2 to 153 µM); in assay [7] it was under 2 µg/mL. Moreover, the MIC in assay [8] was under 2 µg/mL. For the same molecule, the “MIC APAE006 + PMBN” value in assay [5] is given as “A (MIC's of 2.0 μg/mL or less = A)”.
Regarding `C[C@H](O)[C@H](NC(=O)c1ccc(C#C/C=C/c2ccc(CNC3CC3)cc2)cc1)C(=O)NO` [Example 102-4], the MIC was 2 to 16 µg/mL (≈ 4.61 to 36.9 µM) in assay [1]; under 2 µg/mL in assay [2]; over 64 µg/mL in assay [3]; 2 to 16 µg/mL (≈ 4.61 to 36.9 µM) in assay [4]; 16 to 64 µg/mL (≈ 36.9 to 148 µM) in assay [6]; under 2 µg/mL in assay [7]. Moreover, the MIC in assay [8] was under 2 µg/mL. In addition, in assay [5], the “MIC APAE006 + PMBN” value is “A (MIC's of 2.0 μg/mL or less = A)”.
Regarding `CC(C)(O)[C@H](NC(=O)c1ccc(C#C/C=C/c2ccc(CNC3CC3)cc2)cc1)C(=O)NO` [Example 102-5], the MIC is under 2 µg/mL in assay [1]; under 2 µg/mL in assay [2]; over 64 µg/mL in assay [3]; under 2 µg/mL in assay [4]; 2 to 16 µg/mL (≈ 4.47 to 35.8 µM) in assay [6]; under 2 µg/mL in assay [7]. For the same molecule, the MIC in assay [8] is under 2 µg/mL. The “MIC APAE006 + PMBN” value in assay [5] is “A (MIC's of 2.0 μg/mL or less = A)”.
